What was measured:
c-myc protein = assay: Immunodetection of protein c-myc in HGC-27 cell lysates (Western blot); type: cell-based, human; settings: 50 μmol · l^−1, 24 hour incubation, normalized to β-actin
Method: Determination of changes in c-myc protein expression (transcription factor) in cell lysates prepared from tumor cell line HGC-27 after treatment with test helquats (Tab. 7) was carried out by immunodetection after separation of proteins according to their size by gel electrophoresis (SDS-PAGE) and blotting.
To determine the influence helquats on expression of c-myc protein, the cells were cultured under standard conditions and in the exponential growth phase were seeded into flasks at a density of 25,000 cells/cm^2. The next day selected helquats were added at a concentration of 50 μmol·l^−1. After 24 hour incubation, the cell pellets were obtained and, after addition of RIPA buffer with protease inhibitors (PrIC) and phosphatases (PhIC) (for composition see Tab. 8) cell lysates were prepared. 150 μl of RIPA buffer was used for 10^7 cells. Protein concentrations in the lysates were measured by BCA method. Separation of proteins in the lysates was carried out on a 12% denaturing polyacrylamide gel. The separated proteins were transferred to PVDF membrane by Western blotting.
Incubation with primary mouse monoclonal antibody against the protein c-myc (dilution 1:1000 in “SignalBoost” reagent) was carried out overnight at 4° C., and then with the primary mouse anti-β-actin (1:5000 dilution in 5% milk in TBS-T buffer) at room temperature for 2 hours. Subsequently, the secondary horse monoclonal antibody conjugated to horseradish peroxidase (diluted 1:2000 in 5% milk in TBS-T buffer) binding to mouse IgG antibody was applied. C-myc proteins and β-actin bound to the membrane were visualized using detection kit (SuperSignal® West Femto Maximum Sensitivity Substrate, Cat. No. 34095, Thermo Fisher Scientific, Inc., USA) in the chemiluminescence detection system ImageQuant LAS 4000 Mini (Cat. No. 28-9558-13, GE Healthcare Life Sciences, USA). The amount of protein was quantified by densitometry in Quantity One software. The amount of c-myc in the samples was normalized to β-actin, and subsequently related to a control sample.

[1] = test system: G-quadruplex oligonucleotide F21T (human telomere); assay: FRET melting of G-quadruplex oligonucleotide F21T with ligands; type: binding; settings: for ΔTm (° C.) F21T/ds26: helquat 1 μmol·l^−1, oligonucleotide 0.2 μmol·l^−1, 50-fold excess of double-stranded competitor ds26; for ΔTm (° C.) F21T: helquat 1 μmol·l^−1, oligonucleotide 0.2 μmol·l^−1, without competitor
Text: (§1) To determine the degree of in vitro interactions of helquats with G-quadruplex(es), the oligonucleotides containing the guanine-rich sequences of human telomere (F21T) and NHE III1 promoter region of c-myc oncogene (Fmyc27T) were used. Both oligonucleotides capable of forming an intramolecular G-quadruplex were end-labeled with suitable fluorophores so as to form donor-acceptor FRET pair (5′-FAM and 3′-TAMRA). If the oligonucleotide is folded into the structure of the G-quadruplex, donor is in close proximity of acceptor and radiationless energy transfer to the acceptor occurs. With increasing temperature of the reaction mixture G-quadruplex structure gradually denatures and thus the donor and acceptor (FAM-TAMRA) drift apart. This leads to an increase in fluorescence of donor (FAM) and a decrease in fluorescence of acceptor (TAMRA).
(§2) The result of measurement is the curve of dependence of the intensity of fluorescence of the donor on the temperature. If the G-quadruplex is stabilized by ligand, melting temperature will increase. Melting temperature of G-quadruplex corresponds to the temperature when 50% of the original amount of the folded G-quadruplex is denatured. The measurement outcome is the difference in the melting temperatures (ΔTm) of the G-quadruplex alone and the G-quadruplex stabilized by ligand. In case of Fmyc27T experiments were performed in cacodylate buffer (10 mmol·l^−1, pH=7.2) with KCl (5 mmol·l^−1) and LiCl (95 mmol·l^−1) oligonucleotide and in case of F21T oligonucleotide in cacodylate buffer (10 mmol·l^−1, pH=7.2) with KCl (25 mmol·l^−1) and LiCl (75 mmol·l^−1).
(§3) Both oligonucleotides were denatured for 5 minutes at 95° C. and subsequently allowed to cool to room temperature (3 hours) in the switched-off thermoblock. The final oligonucleotide concentration in the reaction mixture was 0.2 μmol·l^−1. Test helquats were present at concentrations of 1 μmol·l^−1. The total reaction volume was 30 μl. The melting temperature of the oligonucleotides alone (without the presence of helquats) under these conditions was 58.1±0.2° C. for F21T and 64.7±0.4° C. for Fmyc27T. For determining the selectivity of binding of helquats to G-quadruplex in comparison with the double-stranded DNA, 50-fold excess of double-stranded DNA ([…] unlabeled competitor ds26 forming a hairpin) is added to the reaction mixture. After the addition to the reaction mixture ds26 competes with labeled oligonucleotide (Fmyc27T or F21T) for ligand binding. […] Melting temperature of oligonucleotides alone in the presence of the competitor is 59.4±0.5° C. for F21T and 66.3° C.±0.6° C. for Fmyc27T.
(§4) Fluorescence of FAM donor was measured using real-time PCR apparatus Opticon 2 (excitation 470-505 nm and emission 523-543 nm) in temperature increments of 0.5° C. in the range 25 to 95° C. Evaluation of the sigmoid curves of fluorescence intensity dependent on the temperature were performed in GraphPad Prism 5 (GraphPad Software, Inc., USA). Using nonlinear five parametric regression the inflection point on the curve was calculated that corresponds to the melting temperature (Tm) of the G-quadruplex under the given conditions. The values were obtained from at least three independent measurements.

[2] = test system: G-quadruplex oligonucleotide Fmyc27T (NHE III1 promoter region of c-myc oncogene); assay: FRET melting of G-quadruplex oligonucleotide Fmyc27T with ligands; type: binding; settings: for ΔTm (° C.) Fmyc27T/ds26 (° C.): helquat 1 μmol·l^−1, oligonucleotide 0.2 μmol·l^−1, 50-fold excess of double-stranded competitor ds26; for ΔTm (° C.) Fmyc27T: helquat 1 μmol·l^−1, oligonucleotide 0.2 μmol·l^−1, without competitor
Text: as §1, §2, §3, §4

[3] = test system: G-quadruplex in promoter region of the c-myc gene (NHE III1 segment); assay: Dual luciferase analysis with plasmid pGL4.10-myc (luc2) in HGC-27 cells; type: cell-based, human; settings: Homo sapiens; for inhibition at 50 µM: HGC-27, text summary of tab. 5 (50 μmol·l^−1), read-out: inhibition of expression of firefly luciferase as compared to control; for activity at 50 µM: helquat 50 μmol · l^−1, HGC-27, firefly normalized to Renilla, 24 hours after transfection, read-out: luciferase expression relative to control (control = 100%)
Text: A dual luciferase analysis was used to determine the degree of stabilization of G-quadruplex in a promoter region of the c-myc gene on cellular level. Stabilization of G-quadruplex is expressed as the ratio of expression of two luciferases (firefly and Renilla) from the co-transfected vectors pGL4.10-myc (luc2) and pRL-TK (Renilla) into a cell line HGC-27 expressing c-myc protein. Expression of the reporter gene (firefly luciferase) from pGL4.10-myc vector is controlled by the c-myc regulatory region of a length of 860 by (in the range from −306 to +554). The inserted sequence contains NHE III1 segment which forms G-quadruplex [Yang, D. et al. (2010) Future Med Chem., 2, 619], and is responsible for as much as 90% of the transcriptional activity of the c-myc gene.
Level of expression of firefly luciferase reporter gene corresponds to promoter activity of c-myc and thus to the degree of stabilization of the G-quadruplex. The signal is normalized to Renilla luciferase expression from pRL-TK vector under the control of a constitutive viral thymidine kinase (HSV-TK) promoter. The amount of Renilla luciferase expression serves as an internal control for normalization of firefly signal on transfection efficiency in the sample. Plasmids pGL4.10-myc (luc2) and pRL-TK were propagated in Escherichia coli (DH5α strain) and purified using the Qiagen Plasmid Mini and Midi kits. Cells were cultured under standard conditions and in exponential growth phase were seeded into a white 96-well microtiter plates. Transfection was carried out using a transfection reagent X-tremeGENE HP DNA in OptiMEM media for two hours. The ratio of reporter and control vector was 1:1 and the ratio of transfection reagent to the total amount of DNA was 1:1. Two hours after transfection helquats were added in a concentration of 50 μmol·l^−1. Quantity of firefly and Renilla luciferases in the samples was determined 24 hours after transfection. Dual luciferase analysis was performed using a commercially available kit (Promega, cat. No. E1960) according to manufacturer's instructions. Luminescence was measured using a luminometer EnSpire Alpha Plate Reader. The data obtained were normalized to the Renilla luciferase signal and then the values were related to control.

2,4,15,17-tetra((E)-(2-(1-methyl-1H-indol-2-yl)vinyl)-6,7,8,11,12,13-hexahydrodipyrido[1,2-a:1′,2′-a′]benzo[2,1-c:3,4-c′]bisazepindiium trifluoromethanesulfonate [PRC-C10-10]
c-myc protein expression relative to control (control = 100%) (c-myc protein): 71%

C(=C\c1cc(/C=C/c2ccsc2)[n+]2c(c1)-c1c(ccc3c1-c1cc(/C=C/c4ccsc4)cc(/C=C/c4ccsc4)[n+]1CCC3)CCC2)/c1ccsc1 (racemic) [PRC-C5-9, (rac)-2,4,13,15-tetrakis((E)-2-(thiophen-3-yl)vinyl)-6,7,8,11,12,13-hexahydro-dipyrido[1,2-a;1′,2′-a′]benzo[2,1-c:3,4-c′]bisazepindiium trifluoromethanesulfonate]
c-myc protein expression relative to control (control = 100%) (c-myc protein): 34%

C(=C\c1cc2ccccc2[nH]1)/c1cc(/C=C/c2cc3ccccc3[nH]2)[n+]2c(c1)-c1c(ccc3c1-c1cccc[n+]1CC3)CC2.O=S(=O)([O-])C(F)(F)F.O=S(=O)([O-])C(F)(F)F [HTA-C10-10, 2,4-bis((E)-2-(1H-indol-2-yl)vinyl)-6,7,10,11-tetrahydrodipyrido[2,1-a:1′,2′-k][2,9]phenanthroline-5,12-diium trifluoromethanesulfonate]
c-myc protein expression relative to control (control = 100%) (c-myc protein): 75%

C(=C\c1ccc(-c2cccs2)s1)/c1cc[n+]2c(c1)-c1c(ccc3c1-c1cccc[n+]1CC3)CC2.O=S(=O)([O-])C(F)(F)F.O=S(=O)([O-])C(F)(F)F [LSA-C9-16, (E)-2-(2-([2,2′-bithiophen]-5-yl)vinyl)-6,7,10,11-tetrahydrodipyrido[2,1-a:1′,2′-k][2,9]phenanthroline-5,12-diium trifluoromethanesulfonate]
c-myc protein expression relative to control (control = 100%) (c-myc protein): 28%

COc1ccc(/C=C/c2cc[n+]3c(c2)-c2c(c(C)c(C)c4c2-c2cccc(/C=C/c5ccc(OC)nc5OC)[n+]2CC4)CC3)c(OC)n1.O=S(=O)([O-])C(F)(F)F.O=S(=O)([O-])C(F)(F)F [MJB-C8-27, 2,13-bis((E)-2-(2,6-dimethoxypyridin-3-yl)vinyl)-8,9-dimethyl-6,7,10,11-tetrahydrodipyrido[2,1-a:1′,2′-k][2,9]phenanthroline-5,12-diium trifluoromethanesulfonate]
ΔTm (° C.) F21T/ds26 [1]: 5.2 °C | ΔTm (° C.) F21T [1]: 8.0 °C | ΔTm (° C.) Fmyc27T/ds26 (° C.) [2]: 10.0 °C | ΔTm (° C.) Fmyc27T [2]: 9.7 °C | inhibition at 50 µM [3]: > 10% | activity at 50 µM [3]: 88%

COc1ccc(/C=C/c2cc[n+]3c(c2)-c2c(ccc4c2-c2cc(/C=C/c5ccc(OC)nc5OC)cc[n+]2CC4)CC3)c(OC)n1 [PDA-C8-27, 2,15-bis((E)-2-(2,6-dimethoxypyridin-3-yl)vinyl)-6,7,10,11-tetrahydrodipyrido[2,1-a:1′,2′-k][2,9]phenanthroline-5,12-diium trifluoromethanesulfonate]
ΔTm (° C.) F21T/ds26 [1]: 7.0 °C | ΔTm (° C.) F21T [1]: 9.3 °C | ΔTm (° C.) Fmyc27T/ds26 (° C.) [2]: 9.6 °C | ΔTm (° C.) Fmyc27T [2]: 11.8 °C | inhibition at 50 µM [3]: > 20% | activity at 50 µM [3]: 77%

Brc1ccc2[nH]cc(/C=C/c3cc[n+]4c(c3)-c3c(ccc5c3-c3cc(/C=C/c6c[nH]c7ccc(Br)cc67)cc[n+]3CC5)CC4)c2c1.O=S(=O)([O-])C(F)(F)F.O=S(=O)([O-])C(F)(F)F [PDA-C9-30, 2,15-bis((E)-2-(5-bromo-1H-indol-3-yl)vinyl)-6,7,10,11-tetrahydrodipyrido[2,1-a:1′,2′-k][2,9]phenanthroline-5,12-diium trifluoromethanesulfonate]
ΔTm (° C.) F21T/ds26 [1]: 13.1 °C | ΔTm (° C.) F21T [1]: 12.3 °C | ΔTm (° C.) Fmyc27T/ds26 (° C.) [2]: 16.0 °C | ΔTm (° C.) Fmyc27T [2]: 14.6 °C

Cn1cc(/C=C/c2cc[n+]3c(c2)-c2c(ccc4c2-c2cc(/C=C/c5cn(C)c6ccccc56)cc[n+]2CC4)CC3)c2ccccc21 [PDA-C10-13, 2,15-bis((E)-2-(1-methyl-1H-indol-3-yl)vinyl)-6,7,10,11-tetrahydrodipyrido[2,1-a:1′,2′-k][2,9]phenanthroline-5,12-diium trifluoromethanesulfonate]
ΔTm (° C.) F21T/ds26 [1]: 9.1 °C | ΔTm (° C.) F21T [1]: 9.7 °C | ΔTm (° C.) Fmyc27T/ds26 (° C.) [2]: 13.6 °C | ΔTm (° C.) Fmyc27T [2]: 13.8 °C

Cc1c(C)c2c(c3c1CC[n+]1ccc(/C=C/c4c(-c5ccccc5)[nH]c5ccccc45)cc1-3)-c1cc(/C=C/c3c(-c4ccccc4)[nH]c4ccccc34)cc[n+]1CC2 [PDB-C15-8, 8,9-dimethyl-2,15-bis((E)-2-(2-phenyl-1H-indol-3-yl)vinyl)-6,7,10,11-tetrahydrodipyrido[2,1-a:1′,2′-k][2,9]phenanthroline-5,12-diium trifluoromethanesulfonate]
ΔTm (° C.) F21T/ds26 [1]: 11.1 °C | ΔTm (° C.) F21T [1]: 11.3 °C | ΔTm (° C.) Fmyc27T/ds26 (° C.) [2]: 14.5 °C | ΔTm (° C.) Fmyc27T [2]: 15.7 °C
